Legend:
Mice = test: Cholesterol / epicholesterol enriched diets in mice: plasma and liver total cholesterol (enzymatic colorimetric method); type: in vivo, male CD mice; conditions: 4 days
Experimental: (§1) Male Sprague Dawley rats weighing 250 g and male CD mice weighing 22-25 g (Charles River) were housed in rooms maintained at 21±1°C with relative humidity 50-60% and a 12 hours light-dark cycle. After a week of housing, the animals were allocated to the different experimental groups and received one of the following diets: • a) rat or mouse chow diet, containing 0.5% sodium cholate; • b) cholesterol enriched diet, containing 0.5% sodium cholate and 1.5% cholesterol; • c) epicholesterol enriched diet, containing 0.5% sodium cholate and 1.5% epicholesterol; • d) epicholesterol and cholesterol enriched diet containing 0.5% sodium cholate and 1.5% of both sterols. Weight of the animals and food consumption were recorded daily. After overnight fasting, the animals were anesthetized with sodium pentobarbital (50 mg/kg body weight) and exsanguinated from the abdominal aorta. Plasma was obtained by low speed (3000 g for 10 min) centrifugation of whole blood containing Na₂EDTA as anticoagulant. Plasma lipid extracts were prepared according to Bligh E.G., Dyer W.J., Can. J. Bioch. Physiol, 31, 911, 1959. Liver specimens (500 mg) were excised from the lateral liver lobe, washed in ice-cold saline, and immediately placed on dry-ice and stored at -80°C. They were extracted according to the method of Folch J. et al., J. Biol. Chem. , 226, 497, 1957, as modified by Carlson L.A., J. Atheroscler. Res., 3, 334, 1963. Plasma and liver total cholesterol content (i.e. unesterified and esterified cholesterol fractions) were determined by the enzymatic colorimetric method of Allain et al., Clin. Chem., 20, 470, 1974. In this assay epicholesterol is not read.

Rats = test: Cholesterol / epicholesterol enriched diets in rats: plasma and liver total cholesterol (enzymatic colorimetric method); type: in vivo, Male Sprague Dawley rats; conditions: 4 days
Experimental: as §1

[1] = Micellar cholesterol solubilization in vitro; type: physicochemical; conditions: for Micellar Cholesterol Content: cholesterol 1 mM
Experimental: The micellar solubility of cholesterol in vitro was measured by the method of Ikeda I., Tanabe Y. and Sugano M. , J. Nutr. Sci. Vitaminol. 35, 361, 1989. In detail, cholesterol (1 mM) or mixture of cholesterol (1 mM) and epicholesterol (0.5-8 mM) were sonicated for 2 minutes at 37°C in 15 mM NaPO₄ buffer, pH 7.4, containing 0.6 mM egg yolk lecithin, 1 mM oleic acid, 0.5 mM monolein, 6.6 mM Na taurocholate, and 132 mM NaCl. After incubation at 37°C overnight, the solutions were subjected to ultracentrifugation (100,000 g for 60 min at 37°C). Samples of the supernatant were assayed for the cholesterol content.

[2] = Gas liquid chromatography of unesterified sterols in plasma and liver of mice fed enriched diets; type: in vivo; conditions: for Percent Distribution Epicholesterol (unesterified sterol content): 1.5% sterol enriched diet, Mean ± SD, n=3, nd: not detectable
Experimental: Male Sprague Dawley rats weighing 250 g and male CD mice weighing 22-25 g (Charles River) were housed in rooms maintained at 21±1°C with relative humidity 50-60% and a 12 hours light-dark cycle. After a week of housing, the animals were allocated to the different experimental groups and received one of the following diets: • a) rat or mouse chow diet, containing 0.5% sodium cholate; • b) cholesterol enriched diet, containing 0.5% sodium cholate and 1.5% cholesterol; • c) epicholesterol enriched diet, containing 0.5% sodium cholate and 1.5% epicholesterol; • d) epicholesterol and cholesterol enriched diet containing 0.5% sodium cholate and 1.5% of both sterols. Weight of the animals and food consumption were recorded daily.
After overnight fasting, the animals were anesthetized with sodium pentobarbital (50 mg/kg body weight) and exsanguinated from the abdominal aorta. Plasma was obtained by low speed (3000 g for 10 min) centrifugation of whole blood containing Na₂EDTA as anticoagulant.
Plasma lipid extracts were prepared according to Bligh E.G., Dyer W.J., Can. J. Bioch. Physiol, 31, 911, 1959.
Liver specimens (500 mg) were excised from the lateral liver lobe, washed in ice-cold saline, and immediately placed on dry-ice and stored at -80°C. They were extracted according to the method of Folch J. et al., J. Biol. Chem. , 226, 497, 1957, as modified by Carlson L.A., J. Atheroscler. Res., 3, 334, 1963.
Lipids extract from plasma and liver were separated by TLC on Silica Gel plates from Merck using petroleum ether 40-70°/diethyl ether/acetic acid (80:20:1) as developing system. Cholesterol, epicholesterol, dihydrocholesterol, and 7-keto-cholesterol as representative of the oxysterol class of sterols migrated with very similar Rf and could be recovered as a single area from the TLC plate. These sterols were eluted from the silica using chloroform and were dried by evaporation under N₂. The samples were redissolved in pyridine and derivatizated adding an equal volume of MBSTFA [N-methyl-N(tert-butyldimethylsilyl)Trifluoroacetamide].
After 20 minutes at room temperature the samples were analyzed by GLC according to Smith N.B., Lipids, 17, 464, 1982, on a Carlo Erba Mega 3000 gaschromatographer equipped with a flame ionization detector and a 25 m OV1 column (0.2 mm id., film thickness 0.2-0.25). He was used as carrier at 100 Kps. The splitless injection technique was used and 1-2 µl sample were injected. […] The injection and the detector temperatures were respectively 340°C and 350°C. Retention time of cholesterol, epicholesterol, dihydrocholesterol and 7keto-cholesterol were determined by injecting pure sterols.

[3] = diet with 0.5% sodium cholate and 1.5% of the single sterol
[4] = diet with 0.5% sodium cholate and 1.5% of the single sterol, listed as cholesterol
[5] = diet with 0.5% sodium cholate and 1.5% of the single sterol, mean±spread
[6] = diet with 0.5% sodium cholate and 1.5% of the single sterol, listed as epicholesterol
[7] = diet with 1.5% Cholesterol and 1.5% Epicholesterol together, 0.5% sodium cholate
[8] = diet with 1.5% Cholesterol and 1.5% Epicholesterol together, 0.5% sodium cholate, listed as epicholesterol

## CC(C)CCC[C@@H](C)[C@H]1CC[C@H]2[C@@H]3CC=C4C[C@@H](O)CC[C@]4(C)[C@H]3CC[C@]12C [Cholesterol]
Mice; [3]
  CHOLESTEROL CONCENTRATION IN LIVER: **18.70±2.60 (n=10) mg/g fresh tissue
  CHOLESTEROL CONCENTRATION IN PLASMA: **152±19 (n=10) mg/dl
Mice; [4]
  CHOLESTEROL CONCENTRATION IN LIVER: at least a fourfold increase
  CHOLESTEROL CONCENTRATION IN PLASMA: rose significantly
Rats; [3]
  CHOLESTEROL CONCENTRATION IN LIVER: **11.28±1.48 (n=7) mg/g fresh tissue
Rats; [4]
  CHOLESTEROL CONCENTRATION IN LIVER: at least a fourfold increase
Rats; [5]
  CHOLESTEROL CONCENTRATION IN PLASMA: **178±45 (n=7) mg/dl
Rats; diet with 0.5% sodium cholate and 1.5% of the single sterol, mean±spread, listed as cholesterol
  CHOLESTEROL CONCENTRATION IN PLASMA: rose significantly

## CC(C)CCC[C@@H](C)[C@H]1CC[C@H]2[C@@H]3CC=C4C[C@H](O)CC[C@]4(C)[C@H]3CC[C@]12C [Epicholesterol, cholest-5-en-3α-ol]
[1]; Cholesterol-to-Epicholesterol Ratio 0.125
  Micellar Cholesterol Content: 0.18 ± 0.02 mM
[1]; Cholesterol-to-Epicholesterol Ratio 0.25
  Micellar Cholesterol Content: 0.22 ± 0.03 mM
[1]; Cholesterol-to-Epicholesterol Ratio 0.5
  Micellar Cholesterol Content: 0.23 ± 0.06 mM
[1]; Cholesterol-to-Epicholesterol Ratio 1
  Micellar Cholesterol Content: 0.42 ± 0.03 mM
[1]; Cholesterol-to-Epicholesterol Ratio 2, control (cholesterol only) 1.00 ± 0.05
  Micellar Cholesterol Content: 0.71 ± 0.05 mM
[1]; cholesterol and epicholesterol in a 1 to 0.5 molar ratio
  decrease of cholesterol micellar solubility: more than 30%
[1]; epicholesterol and cholesterol mixed together, all the concentrations tested of epicholesterol (0.5-8 mM)
  cholesterol micellar solubility: significantly decreased
Mice; [3]
  CHOLESTEROL CONCENTRATION IN LIVER: °° 2.58±0.16 (n=10) mg/g fresh tissue
  CHOLESTEROL CONCENTRATION IN PLASMA: * 93±15 °°(n=10) mg/dl
Mice; [6]
  CHOLESTEROL CONCENTRATION IN LIVER: did not brought about any significant change
  CHOLESTEROL CONCENTRATION IN PLASMA: did not brought about any significant change
Mice; [7]
  CHOLESTEROL CONCENTRATION IN LIVER: ** 9.54±1.49 °° (n=10) □□ mg/g fresh tissue
  CHOLESTEROL CONCENTRATION IN PLASMA: **115±26 □(n=10) mg/dl
Mice; [8]
  CHOLESTEROL CONCENTRATION IN LIVER: significant decrease
  CHOLESTEROL CONCENTRATION IN PLASMA: significant decrease
[2]; conclusion from plasma and liver sterol content of mice fed 1.5% epicholesterol diet
  absorption by the intestine: only minimally absorbed
[2]; mice liver
  Percent Distribution Epicholesterol (unesterified sterol content): 1.0±0.4%
[2]; mice liver, listed as epicholesterol
  Percent Distribution Epicholesterol (unesterified sterol content): only trace amount
[2]; mice plasma
  Percent Distribution Epicholesterol (unesterified sterol content): 2.6±1.5%
[2]; mice plasma, listed as epicholesterol
  Percent Distribution Epicholesterol (unesterified sterol content): only trace amount
Rats; [3]
  CHOLESTEROL CONCENTRATION IN LIVER: °° 2.59±0.38 (n=3) mg/g fresh tissue
Rats; [6]
  CHOLESTEROL CONCENTRATION IN LIVER: did not brought about any significant change
Rats; [5]
  CHOLESTEROL CONCENTRATION IN PLASMA: °° 64±18 (n=3) mg/dl
Rats; diet with 0.5% sodium cholate and 1.5% of the single sterol, mean±spread, listed as epicholesterol
  CHOLESTEROL CONCENTRATION IN PLASMA: did not brought about any significant change
Rats; [7]
  CHOLESTEROL CONCENTRATION IN LIVER: ** 5.71±0.95 °° (n=3) □ mg/g fresh tissue
  CHOLESTEROL CONCENTRATION IN PLASMA: **103±9 ° (n=3) □ mg/dl
Rats; [8]
  CHOLESTEROL CONCENTRATION IN LIVER: significant decrease
  CHOLESTEROL CONCENTRATION IN PLASMA: significant decrease
